# In patent EP4663632A1, “COMPOUNDS USEFUL FOR THE MODULATION OF THE ACTIVITY OF STING” (Sulis Therapeutics ApS, priority 2024, dated 2025):
# How the values were obtained:
# [1] = target: T1, C-terminal domain (CTD) of human STING (Homo sapiens, UniProt Q86WV6); test: STING binding FP assay I; parameters: recombinant human STING protein (155-379); conditions: 35 nM STING, 4 nM Probe 1
# Procedure: (§1) The interaction between molecules and the C-terminal domain (CTD) of human STING was evaluated using a competition binding assay. In this assay, recombinant human STING protein (155-379) and a STING binding fluorescent probe were employed. Upon binding of the probe to STING, the rotation of the fluorescent probe is slowed due to the larger molecular size of the protein-bound complex. As a result, emitted light retains its plane of polarization, leading to an increase in fluorescence polarization. Molecules competing for the probe binding site displace the probe, which leads to rapid randomization of the polarization plane of the emitted light and a subsequent decrease in measured fluorescence polarization signal. Change in polarization was measured, allowing a comparative evaluation of the binding affinities of different compounds to the target protein.
# (§2) The assay was performed in 96-well plates (ThermoFisher, cat.# 237108) containing 100µl : 10 µL test compound in 10% DMSO and buffer A (150 mM NaCl, 50 mM HEPES pH 7.5, 1 mM DTT) + 90 µL prepared master mix solution of: 4 nM fluorescein-labelled STING ligand (Probe 1; synthesis described above) in buffer A + 0.055% Tween-20 (v/v) and 35 nM STING in buffer A. Post mixing, plates were agitated at 600rpm and incubated for 20 min at room temperature. Subsequent measurements of the fluorescence polarization signal were made on a BioTek Synergy-H1 plate reader, using a polarization filter; Exc: 485/20 nm, Em: […]) with a gain-setting of 75. IC50 values were determined using a standard non-linear regression four-parameter curve fit in Graphpad Prism.
# [2] = target: T2, STING (Homo sapiens, UniProt Q86WV6); test: Western Blot analysis of STING phosphorylation in human fibroblast cells (STING agonism); format: cell-based; parameters: host or cells: HFF-1 human foreskin fibroblasts; conditions: 7.2µM-3.6nM; 24h
# T2 sequence (Q86WV6 whole entry): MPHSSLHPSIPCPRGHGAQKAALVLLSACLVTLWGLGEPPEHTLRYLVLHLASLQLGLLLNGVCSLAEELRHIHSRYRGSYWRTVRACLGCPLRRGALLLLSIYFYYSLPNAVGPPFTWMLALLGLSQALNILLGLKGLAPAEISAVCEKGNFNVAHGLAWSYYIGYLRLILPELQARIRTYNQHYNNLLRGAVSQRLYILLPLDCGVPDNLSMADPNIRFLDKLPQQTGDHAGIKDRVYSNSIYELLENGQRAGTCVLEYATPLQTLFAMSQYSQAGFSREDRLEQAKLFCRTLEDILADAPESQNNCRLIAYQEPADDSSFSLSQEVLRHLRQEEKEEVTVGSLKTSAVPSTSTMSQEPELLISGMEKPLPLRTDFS
# Procedure: Human fibroblast were treated with a titration of E22, E9, E14 and E16 (7.2µM-3.6nM) for 24h prior to cell lysis and subsequently total STING, pSTING and Vinculin were assessed by western blot using rabbit anti-STING (1:1000), anti-pSTING (1:1000), anti-Vinculin (1:1000) and 2nd anti-rabbit-HRP (1:10.000) or anti-mouse-HRP (1:7500). Proteins were visualized using ImageQuant800. Control cells included untreated cells and cells treated with 300nM diABZI C3.
# [3] = target: T1, C-terminal domain (CTD) of human STING; test: STING binding FP assay II; parameters: recombinant human STING protein (155-379); conditions: 7 nM STING
# Procedure: as §1, §2
# The procedure for STING binding FP assay II is the same as described for STING binding FP assay I, except for a lower STING concentration. In STING binding FP assay II, a concentration of 7 nM STING in buffer A was used.
# [4] = target: T2, STING; test: Western Blot analysis for STING degradation (DC50) in HFF-1 cells; format: cell-based; parameters: host or cells: HFF-1 human foreskin fibroblasts; conditions: 24h
# Procedure: To assess STING degradation in human foreskin fibroblasts HFF-1 cells (ATCC, SCRC-1041) cells were seeded at a density of 60.000 cells/well in 24-well Nunclon Delta surface treated culture plate in DMEM growth medium (supplemented with 10% FBS, 1% Pen-strep). Cells were incubated over-night at 37°C 5% CO2 to allow adhesion. Next day growth medium was renewed and a 5x concentration of test compounds (2.5% DMSO) diluted in growth medium were added to the appropriate well. The final DMSO concentration were 0.5%. Cell culture plates were returned to the incubator for additional 24h.
# (§3) For cell lysing for Western Blot analysis cell culture plates were brought to ice, supernatant was removed by aspiration and cells washed 2x in ice-cold DPBS. Cells were lysed in 65 µL of RIPA buffer supplemented with cOmplete ULTRA Tablets protease inhibitor cocktail, PIERCE Phosphatase inhibitor mini tablet, Benzonase and 10mM NaF for 20 min on ice. Lysates were collected, cleared by centrifugation (13000xg for 10 min at 4°C). Samples were either analysed directly or stored at -80°C until analysis.
# (§4) For Western Blotting, total protein concentration in each lysate was determined using PIERCE Gold BCA Assay kit according to manufactures protocol. 6 µg of total protein was mixed with 2x Laemmli buffer containing DTT, boiled for 5 min at 95°C, cooled on ice and loaded into each well of a 4-20% Criterion TGX gel. Proteins were separated by electrophoresis, by running for 1h at 150V. After separation proteins were blotted onto a PVDF membrane by semi-dry transfer using Trans-Blot turbo system at pre-defined BioRad MIDI protocol; 25V, 1A (fixed) for 30 min. Membranes were blocked for 1h in 5% skim milk in TBS-T20 on a rocker at room temperature followed by washing and exposure to primary antibodies against human STING 1:1000 (Cell Signalling, #13647) or loading controls Vinculin 1:1000 (Cell Signalling, #13901) or beta-Actin 1:10000 (Sigma, A5441) all diluted in 5% BSA in TBS-T20. Membranes were probed over night at 4°C on a rocker. Membranes were washed 3x in TBS-T20 followed by exposure to secondary HRP-conjugated anti-rabbit antibody or HRP-conjugated anti-mouse antibody diluted 1:10000 in 5% skim milk in TBS-T20 as appropriate. Membranes were incubated for 1h at room temperature on a rocker, then washed 3x in TBS-T20.
# (§5) For generating DC50 values, the intensity of individual bands was measured using imaged and expression levels were calculated as a ratio of STING intensities vs. Reference protein intensities and normalized to DMSO control. The normalized ratios were plotted on a XY curve in GraphPad Prism where DC50 was estimated using a 4-parameter non-linear regression fitting curve.
# [5] = target: T1, C-terminal domain (CTD) of human STING; test: STING binding FP assay III; parameters: recombinant human STING protein (155-379); conditions: 10 nM STING (FP assay III according to the text); read-out: STING binding FP assay II, IC50
# Procedure: as §1, §2
# The procedure for STING binding FP assay III is the same as described for STING binding FP assay I, except for a lower STING concentration. In STING binding FP assay III, a concentration of 10 nM STING in buffer A was used.
# [6] = target: T2, STING; test: Western Blot analysis for STING degradation in H596 cells; format: cell-based; conditions: 24h; reference protein beta-actin
# Procedure: as §3, §4, §5
# To assess STING degradation in H596 cells (ATCC, HTB-178) cells were seeded at a density of 100.000 cells/well in 24-well Nunclon Delta surface treated culture plate in RPMI-1640 growth medium (supplemented with 10% FBS, 1% Pen-strep). Cells were incubated over-night at 37°C 5% CO2 to allow adhesion. Next day growth medium was renewed and a 5x concentration of test compounds (2.5% DMSO) diluted in growth medium were added to the appropriate well. Final DMSO concentration was 0.5%. Cell culture plates were returned to the incubator for additional 24h. Final test compound concentrations were 0.22 µM, 0.67 µM, 2 µM and 6 µM.
# For cell lysis, western blotting and data analysis, the methods described above for HFF-1 cells were applied.
# [7] = target: T2, STING; test: Western Blot analysis for S1 STING ligand antagonism in primary human skin fibroblasts; format: cell-based; parameters: host or cells: HFF-1 human foreskin fibroblasts; conditions: 5 µM; 2 h or 1 h before, simultaneously with, or 15 minutes after 0.3 µM diABZI
# Procedure: To assess whether S1 STING ligands inhibit STING activation, primary human skin fibroblasts (Figure 5) or HFF-1 cells (Figure 6) were treated with various compounds which comprise only an S1 ligand domain and a Linker domain before undergoing Western Blot analysis as described below. Compounds A9, A11, A26 and A30 used in the following experiments share a common S1 ligand, which is also shared by Example compounds 1, 3, 5-29, 33-38.
# Cells were incubated with A9 or A11 for 1 or 2 hours before addition of diABZI c3, treated with test compound and diABZI c3 simultaneously, or treated with A9 or A11 after 15 minutes incubation with diABZI c3. As a control, cells were also treated with diABZI c3 alone.
# [8] = target: T2, STING; test: Western Blot analysis of inhibition of STING activation in HFF-1 cells; format: cell-based; parameters: host or cells: HFF-1 human foreskin fibroblasts; conditions: for STING, TBK1 and IRF1 phosphorylation: 2 h or 5 h
# Procedure: To assess whether S1 STING ligands inhibit STING activation, primary human skin fibroblasts (Figure 5) or HFF-1 cells (Figure 6) were treated with various compounds which comprise only an S1 ligand domain and a Linker domain before undergoing Western Blot analysis as described below.
# The cells were lysed and analysed on WB. […] The WB membrane was probed for p-STING, STING, p-IRF3, p-TBK1, and Vinculin.
# T1 sequence (Q86WV6 155-379): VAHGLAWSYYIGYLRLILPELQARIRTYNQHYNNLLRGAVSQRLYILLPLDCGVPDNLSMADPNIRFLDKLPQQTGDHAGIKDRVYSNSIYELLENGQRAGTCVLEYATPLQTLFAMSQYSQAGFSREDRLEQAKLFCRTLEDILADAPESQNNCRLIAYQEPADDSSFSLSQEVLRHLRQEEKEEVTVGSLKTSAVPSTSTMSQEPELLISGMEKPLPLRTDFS
smiles,measurement,setting,value
"CCn1nc(C)cc1C(=O)N=c1n(C)c2cc(C(N)=O)ccc2n1CCC(CCn1c(=NC(=O)c2cc(C)nn2CC)n(C)c2cc(C(N)=O)ccc21)OCC(=O)O (stereo not shown) [Building Block G-4, (3-{5-Carbamoyl-2-[(1-ethyl-3-methyl-5-pyrazolyl)carbonylimino]-3-methyl-2,3-dihydro-1H-1,3-benzimidazol-1-yl}-1-(2-{5-carbamoyl-2-[(1-ethyl-3-methyl-5-pyrazolyl)carbonylimino]-3-methyl-2,3-dihydro-1H-1 ,3-benzimidazol-1-yl}ethyl)propoxy)acetic acid]",IC50,[1],< 30 nM
CCn1nc(C)cc1C(=O)N=c1n(C)c2cc(C(N)=O)ccc2n1CCC(CCn1c(=NC(=O)c2cc(C)nn2CC)n(C)c2cc(C(N)=O)ccc21)OCC(=O)NCCOCCOCCOCCOCCOc1cccc(C(=O)c2csc([C@@H]3CCCN3C(=O)[C@@H](NC(=O)[C@H](C)NC)C3CCCCC3)n2)c1 (stereo partly shown) [Example 9],STING phosphorylation (pSTING),[2],no STING phosphorylation was observed
same,IC50,[3],8.4 nM
CCn1nc(C)cc1C(=O)N=c1n(C)c2cc(C(N)=O)ccc2n1CCC(CCn1c(=NC(=O)c2cc(C)nn2CC)n(C)c2cc(C(N)=O)ccc21)OCC(=O)NCCOCCOCCOCCOc1cccc(C(=O)c2csc([C@@H]3CCCN3C(=O)[C@@H](NC(=O)[C@H](C)NC)C3CCCCC3)n2)c1 (stereo partly shown) [Example 22],STING phosphorylation (pSTING),[2],no STING phosphorylation was observed
CCn1nc(C)cc1C(=O)N=c1n(C)c2cc(C(N)=O)ccc2n1CCC(CCn1c(=NC(=O)c2cc(C)nn2CC)n(C)c2cc(C(N)=O)ccc21)OCC(=O)NCCOCCOCCOCCOCCC(=O)NCCOCCOCCOCCOCCOCCNc1cccc2c1C(=O)N(C1CCC(=O)NC1=O)C2=O (stereo not shown) [Example 25],DC50,[4]; reference protein beta-actin,< 200 nM
same,IC50,[5],3.1 nM
CCn1nc(C)cc1C(=O)N=c1n(C)c2cc(C(N)=O)ccc2n1CCC(CCn1c(=NC(=O)c2cc(C)nn2CC)n(C)c2cc(C(N)=O)ccc21)OCC(=O)NCCOCCOCCOCCOCCC(=O)NCCOCCOCC(=O)N[C@H]1C[C@@H](C(=O)N[C@@H]2CCCc3ccccc32)N(C(=O)[C@@H](NC(=O)[C@H](C)NC)C2CCCCC2)C1 (stereo partly shown) [Example 26],DC50,[4]; reference protein vinculin,< 200 nM
same,IC50,[5],4.4 nM
CCn1nc(C)cc1C(=O)N=c1n(C)c2cc(C(N)=O)ccc2n1CCC(CCn1c(=NC(=O)c2cc(C)nn2CC)n(C)c2cc(C(N)=O)ccc21)OCC(=O)NCCOCCOCCOCCOCCC(=O)N(C)CCOCCOCCOCCOCCC(=O)N[C@H](C(=O)N1C[C@H](O)C[C@H]1C(=O)N[C@@H](C)c1ccc(-c2scnc2C)cc1)C(C)(C)C (stereo partly shown) [Example 27],DC50,[6],< 200 nM
same,IC50,[5],4.5 nM
"CCn1nc(C)cc1C(=O)N=c1n(C)c2cc(C(N)=O)ccc2n1CCC(CCn1c(=NC(=O)c2cc(C)nn2CC)n(C)c2cc(C(N)=O)ccc21)OCC(=O)N1CCC[C@H]1c1cccc(OC)c1 (stereo partly drawn) [Example A11, 1-(3-{2-[(S)-2-(3-Methoxyphenyl)-1-pyrrolidinyl]-2-oxoethoxy}-5-{5-carbamoyl-2-[(1-ethyl-3-methyl-5-pyrazolyl)carbonylimino]-3-methyl-2,3-dihydro-1H-1,3-benzimidazol-1-yl}pentyl)-2-[(1-ethyl-3-methyl-5-pyrazolyl)carbonylimino]-3-methyl-2,3-dihydro-1H-1,3-benzimidazole-5-carboxamide]",LC3B lipidation,[7],reduced LC3B lipidation
same,P-STING intensity (activation of STING),[7],reduced intensity of P-STING
same,P-TBK1 intensity,[7],reduced P-TBK1 intensity
same,"STING, TBK1 and IRF1 phosphorylation",[8]; 5 µM for 15 min prior to 300 nM diABZI,lower compared to cells treated with diABZI c3 alone
same,"STING, TBK1 and IRF1 phosphorylation",[8]; 5 µM for 15 min prior to 8 µg/mL cGAMP,lower compared to cells treated with cGAMP alone
same,"phosphorylation of STING, IRF1 or TBK1 (agonism)","[8]; compound as single agent, no activation","no phosphorylation of STING, IRF1 or TBK1 was observed"
